Structures are written as SMILES.

In the assay the target is T1, PERK (Homo sapiens, UniProt Q9NZJ5).
T1 construct: GST-PERK (536-1116) cytoplasmic domain was purchased from Invitrogen; purchased Invitrogen PV5106
T1 sequence (Q9NZJ5 536-1116): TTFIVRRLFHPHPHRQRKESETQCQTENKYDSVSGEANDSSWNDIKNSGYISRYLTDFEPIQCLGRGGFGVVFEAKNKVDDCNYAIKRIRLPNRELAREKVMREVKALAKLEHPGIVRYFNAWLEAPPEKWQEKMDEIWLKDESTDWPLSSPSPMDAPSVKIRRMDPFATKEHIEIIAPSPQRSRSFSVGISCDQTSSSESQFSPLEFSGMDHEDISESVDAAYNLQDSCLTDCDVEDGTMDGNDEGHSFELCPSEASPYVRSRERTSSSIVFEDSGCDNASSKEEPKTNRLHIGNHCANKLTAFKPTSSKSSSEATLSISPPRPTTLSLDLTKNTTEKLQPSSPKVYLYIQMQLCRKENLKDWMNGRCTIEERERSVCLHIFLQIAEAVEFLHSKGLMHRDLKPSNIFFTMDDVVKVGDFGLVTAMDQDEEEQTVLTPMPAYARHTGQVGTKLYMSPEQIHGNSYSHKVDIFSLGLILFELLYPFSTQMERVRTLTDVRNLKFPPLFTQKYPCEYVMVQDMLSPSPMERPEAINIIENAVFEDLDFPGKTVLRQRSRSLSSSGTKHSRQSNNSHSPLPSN
Briefly: PKR-like Endoplasmic Reticulum Kinase (PERK) Assay (HTRF Format). The settings on record: average, in at least one set of experimental runs; read-out: average pIC50 value against PERK (converted). The assay is classed as biochemical. The procedure:
PKR-like Endoplasmic Reticulum Kinase (PERK) Assay (HTRF Format)
Source of substrate: elF2α: 6-His-Full-length human elF2α is purified from baculovirus expression in Sf9 insect cells. The elF2 protein is buffer exchanged by dialysis into PBS, chemically modified by NHS-LC-Biotin and then buffer exchanged by dialysis into 50 mm TRIS pH 7.2/250 mM NaCl/5 mM DTT. Protein is aliquoted and stored at −80° C.
Assays were performed by adding GST-PERK solution to assay plates containing compounds and pre-incubated for 30 minutes at room temperature. The reaction is initiated by the addition of ATP and EIF2α substrate solution. Quench solution is added following a one hour incubation at room temperature. The plates are covered for 2 hours at room temperature prior to determination of signal. The resulting signal is quantified on a Viewlux Reader (PerkinElmer). The APC Signal is normalized to the Europium signal by transforming the data through an APC/Eu calculation.
Compounds under analysis were dissolved in DMSO to 1.0 mM and serially diluted 1 to 3 with DMSO through eleven dilutions. 0.1 μl of each concentration was transferred to the corresponding well of an assay plate. This creates a final compound concentration range from 0.00017 to 10 μM.
The data for concentration response curves were plotted as % Inhibition calculated with the data reduction formula 100*(1−(U1−C2)/(C1−C2)) versus concentration of compound where U is the unknown value, C1 is the average control value obtained for 1% DMSO, and C2 is the average control value obtained for 0.1 M EDTA. Data were fitted with a curve described by:
where A is the minimum y, B is the maximum y concentration [M], D is the slope factor, and x is the log10 of the compound.
In the above data, pIC50 is defined as −log(IC50) where the IC50 value is expressed in molar units.
(TR-FRET usually uses a lanthanide donor and a delayed reading to cut background.)
With `Cc1cccc(CC(=O)N2CCc3cc(-c4cn(C)c5ncnc(N)c45)ccc32)c1C` [Example 81, 5-{1-[(2,3-dimethylphenyl)acetyl]-2,3-dihydro-1H-indol-5-yl}-7-methyl-7H-pyrrolo[2,3-d]pyrimidin-4-amine], the IC50 is not above 1 nM.
`Cc1cccc(CC(=O)N2CCc3cc(-c4nn(C(C)C)c5ncnc(N)c45)ccc32)c1` [Example 82, 1-(1-methylethyl)-3-{1-[(3-methylphenyl)acetyl]-2,3-dihydro-1H-indol-5-yl}-1H-pyrazolo[3,4-d]pyrimidin-4-amine]: the IC50 is not above 2.51 nM.
For `Cn1cc(-c2ccc3c(c2)CCN3C(=O)Cc2cc(F)cc(F)c2)c2c(N)ncnc21` [Example 89, 5-{1-[(3,5-difluorophenyl)acetyl]-2,3-dihydro-1H-indol-5-yl}-7-methyl-7H-pyrrolo[2,3-d]pyrimidin-4-amine], the IC50 is not above 1 nM.
The figure for `Cn1cc(-c2ccc3c(c2)CCN3C(=O)Cc2cc(F)cc(F)c2F)c2c(N)ncnc21` [Example 90, 7-methyl-5-{1-[(2,3,5-trifluorophenyl)acetyl]-2,3-dihydro-1H-indol-5-yl}-7H-pyrrolo[2,3-d]pyrimidin-4-amine] is not above 0.316 nM; for `Cc1cccc(CC(=O)N2CCc3cc(-c4cn(C5CNC5)c5ncnc(N)c45)ccc32)c1` [Example 92, 7-(3-azetidinyl)-5-{1-[(3-methylphenyl)acetyl]-2,3-dihydro-1H-indol-5-yl}-7H-pyrrolo[2,3-d]pyrimidin-4-amine] it is not above 1 nM; for `Cn1cc(-c2ccc3c(c2)CCN3C(=O)Cc2ccc(F)cc2)c2c(N)ncnc21` [Example 93, 5-{1-[(4-fluorophenyl)acetyl]-2,3-dihydro-1H-indol-5-yl}-7-methyl-7H-pyrrolo[2,3-d]pyrimidin-4-amine] it is not above 2.51 nM.
For the molecule `Cn1cc(-c2ccc3c(c2)CCN3C(=O)Cc2cc(Cl)ccc2F)c2c(N)ncnc21` [Example 100, 5-{1-[(5-chloro-2-fluorophenyl)acetyl]-2,3-dihydro-1H-indol-5-yl}-7-methyl-7H-pyrrolo[2,3-d]pyrimidin-4-amine], the IC50 was not above 0.316 nM.
Turning to `Cn1cc(-c2ccc3c(c2)CCN3C(=O)Cc2ccc(F)cc2F)c2c(N)ncnc21` [Example 102, 5-{1-[(2,4-difluorophenyl)acetyl]-2,3-dihydro-1H-indol-5-yl}-7-methyl-7H-pyrrolo[2,3-d]pyrimidin-4-amine], the IC50 is not above 2.51 nM.
`Cc1cc(C)n(CC(=O)N2CCc3cc(-c4cn(C)c5ncnc(N)c45)ccc32)n1` [Example 111, 5-{1-[(3,5-dimethyl-1H-pyrazol-1-yl)acetyl]-2,3-dihydro-1H-indol-5-yl}-7-methyl-7H-pyrrolo[2,3-d]pyrimidin-4-amine]: the IC50 was not above 1 nM.
For the molecule `Cn1cc(-c2ccc3c(c2F)CCN3C(=O)Cc2ccccc2)c2c(N)ncnc21` [Example 112, 5-[4-fluoro-1-(phenylacetyl)-2,3-dihydro-1H-indol-5-yl]-7-methyl-7H-pyrrolo[2,3-d]pyrimidin-4-amine], the IC50 was not above 0.316 nM.
For `Cn1cc(-c2ccc3c(c2F)CCN3C(=O)Cc2cc(F)ccc2F)c2c(N)ncnc21` [Example 114, 5-{1-[(2,5-difluorophenyl)acetyl]-4-fluoro-2,3-dihydro-1H-indol-5-yl}-7-methyl-7H-pyrrolo[2,3-d]pyrimidin-4-amine], the IC50 was not above 0.316 nM.
For the molecule `Nc1ncnc2occ(-c3ccc4c(c3)CCN4C(=O)Cc3cc(F)cc(C(F)(F)F)c3)c12` [Example 119, 5-(1-{[3-fluoro-5-(trifluoromethyl)phenyl]acetyl}-2,3-dihydro-1H-indol-5-yl)furo[2,3-d]pyrimidin-4-amine], the IC50 is not above 2.51 nM.
Consider `Cc1cccc(CC(=O)N2CCc3cc(-c4cn(C)c5ncnc(N)c45)ccc32)n1` [Example 121, 7-methyl-5-{1-[(6-methyl-2-pyridinyl)acetyl]-2,3-dihydro-1H-indol-5-yl}-7H-pyrrolo[2,3-d]pyrimidin-4-amine], for which the IC50 is not above 2.51 nM.
As to `Cn1cc(-c2ccc3c(c2)CCN3C(=O)Cc2cccc(C(F)(F)F)n2)c2c(N)ncnc21` [Example 125, 7-methyl-5-(1-{[6-(trifluoromethyl)-2-pyridinyl]acetyl}-2,3-dihydro-1H-indol-5-yl)-7H-pyrrolo[2,3-d]pyrimidin-4-amine], the IC50 is not above 1 nM.
As to `Nc1ncnc2c1c(-c1ccc3c(c1)CCN3C(=O)Cc1cccc(C(F)(F)F)c1)cn2CCN1CCOCC1` [Example 127, 7-[2-(4-morpholinyl)ethyl]-5-(1-{[3-(trifluoromethyl)phenyl]acetyl}-2,3-dihydro-1H-indol-5-yl)-7H-pyrrolo[2,3-d]pyrimidin-4-amine], the IC50 was not above 0.316 nM.
With `Cc1cccc(CC(=O)N2CCc3cc(-c4cncc5[nH]nc(N)c45)ccc32)c1` [Example 130, 4-{1-[(3-methylphenyl)acetyl]-2,3-dihydro-1H-indol-5-yl}-1H-pyrazolo[3,4-c]pyridin-3-amine], the IC50 is not above 0.316 nM.
Turning to `Nc1ncc(Cl)c2occ(-c3ccc4c(c3)CCN4C(=O)Cc3cc(F)ccc3F)c12` [Example 131, 7-chloro-3-{1-[(2,5-difluorophenyl)acetyl]-2,3-dihydro-1H-indol-5-yl}furo[3,2-c]pyridin-4-amine], the IC50 is not above 1 nM.
As to `CN1CC(n2cc(-c3ccc4c(c3)CCN4C(=O)Cc3cccc(C(F)(F)F)c3)c3c(N)ncnc32)C1` [Example 133, 7-(1-methyl-3-azetidinyl)-5-(1-{[3-(trifluoromethyl)phenyl]acetyl}-2,3-dihydro-1H-indol-5-yl)-7H-pyrrolo[2,3-d]pyrimidin-4-amine], the IC50 was not above 1 nM.
As for `CN(C)CCn1cc(-c2ccc3c(c2)CCN3C(=O)Cc2cccc(C(F)(F)F)c2)c2c(N)ncnc21` [Example 134, 7-[2-(dimethylamino)ethyl]-5-(1-{[3-(trifluoromethyl)phenyl]acetyl}-2,3-dihydro-1H-indol-5-yl)-7H-pyrrolo[2,3-d]pyrimidin-4-amine], the IC50 was not above 1 nM.
With `Cc1cccc(CC(=O)N2CCc3c2ccc(-c2cn(C)c4ncnc(N)c24)c3F)n1` [Example 136, 5-{4-fluoro-1-[(6-methyl-2-pyridinyl)acetyl]-2,3-dihydro-1H-indol-5-yl}-7-methyl-7H-pyrrolo[2,3-d]pyrimidin-4-amine] the figure was not above 1 nM; with `Cn1cc(-c2ccc3c(c2F)CCN3C(=O)Cc2cccc(C(F)(F)F)n2)c2c(N)ncnc21` [Example 137, 5-(4-fluoro-1-{[6-(trifluoromethyl)-2-pyridinyl]acetyl}-2,3-dihydro-1H-indol-5-yl)-7-methyl-7H-pyrrolo[2,3-d]pyrimidin-4-amine], not above 1 nM.
The figure for `Cc1cc(C)n(CC(=O)N2CCc3c2ccc(-c2cn(C)c4ncnc(N)c24)c3F)n1` [Example 138, 5-{1-[(3,5-dimethyl-1H-pyrazol-1-yl)acetyl]-4-fluoro-2,3-dihydro-1H-indol-5-yl}-7-methyl-7H-pyrrolo[2,3-d]pyrimidin-4-amine] is not above 2.51 nM; for `Cn1cc(-c2ccc3c(c2F)CCN3C(=O)Cc2ccc(F)cc2)c2c(N)ncnc21` [Example 141, 5-{4-fluoro-1-[(4-fluorophenyl)acetyl]-2,3-dihydro-1H-indol-5-yl}-7-methyl-7H-pyrrolo[2,3-d]pyrimidin-4-amine] it is not above 0.316 nM.
Consider `Cn1nc(N)c2c(-c3ccc4c(c3)CCN4C(=O)Cc3cccc(C(F)(F)F)c3)cncc21` [Example 143, 1-methyl-4-(1-{[3-(trifluoromethyl)phenyl]acetyl}-2,3-dihydro-1H-indol-5-yl)-1H-pyrazolo[3,4-c]pyridin-3-amine], for which the IC50 was not above 1 nM.
The figure for `Nc1ncnc2c1c(-c1ccc3c(c1)CCN3C(=O)Cc1cc(F)ccc1F)cn2C1CNC1` [Example 144, 7-(3-azetidinyl)-5-{1-[(2,5-difluorophenyl)acetyl]-2,3-dihydro-1H-indol-5-yl}-7H-pyrrolo[2,3-d]pyrimidin-4-amine] is not above 0.316 nM.
